# Test results published in patent publication US20020128264A1, “Methods for treatment of conditions affected by activity of multidrug transporters” (priority 2000, published 2002).
# Read-outs that look alike come from different tables or passages of the source.
# Key:
# [1] = Intracerebroventricular (icv) efflux from brain; format: in vivo, mice; details: icv administration
# Protocol: (§1) Male Swiss-Webster CFW mice were supplied by Charles River Laboratories (Hollister, Calif.) and all experiments were conducted according to the NIH Guide on Care and Use of Laboratory Animals. Mice were 2-3 months old at the time of use.
# (§2) These experiments were conducted according to the method of Banks et al. (1997) with minor modifications. The skull was exposed and, with a guarded 25 g needle, a hole was made through the skull at 1 mm anterior posterior (AP) and 1 mm lateral left (LL), relative to Bregma, and 3.5 mm dorsal ventral (DV), with respect to the skull. A guarded 1 μL Hamilton syringe (25 g) was used to inject 1 μL of PBS containing ^14C-AIT-082 (˜4.5×10^4 dpm/μL), ^3H-sucrose (˜3×10^4 dpm/μL), or ^3H-quinidine (˜3×10^4 dpm/μL) icv into mice. After injection and upon withdrawing the needle, there was often back flux of fluid that was collected. At various times after injection the amount of radioactivity remaining in the brain was determined. The amount of radioactivity in the back flux and injection mixture was also determined. Radioactivity in brain was corrected for the back flux and the log of this corrected dpm was plotted against time. The t½, was the inverse of the slope of the line multiplied by 0.301 (Banks et al., 1997).
# (§3) All data are presented as mean ±S.E. For comparisons of means from 2 groups an unpaired Student's t-test was used. For comparisons of means from 3 groups, ANOVA was performed coupled with Scheffe's post-hoc analysis.
# [2] = Intraparenchymal (ipc) efflux from brain; format: in vivo, mice; details: ipc administration
# Protocol: as §1
# These experiments were conducted according the method of Banks et al. (1994) with minor modifications. Mice were anesthetized and then immobilized in a stereotaxic apparatus with a mouse adaptor coupled to a microinjection unit (Kopf, Tujunga, Calif.). A small hole was made in the skull with a Dremel drill (model 770; 2.4 mm drill bit, model 107) at −1 mm AP and 1 mm LL relative to Bregma. Using a guarded 0.5 μL Hamilton syringe (25 g), 0.1 μL PBS containing ^14C-AIT-082 ([…]) or ^3H-sucrose (˜5×10^4 dpm/μL) was injected ipc at […] with respect to the skull. Back flux of injection fluid was collected and at various times after injection brains were removed. The amount of radioactivity in brain, back flux and injection mixture was measured. The amount of radioactivity in the brain was corrected for the back flux and the log of this corrected dpm was plotted against time. The t½ was calculated as described above.
# as §3
# P-gp = biological target: T1, P-gp (Mus musculus, UniProt P21447); test: Effect of AIT-082 on efflux of 3H-quinidine (P-gp substrate) from brain after icv administration; format: in vivo, mice; details: quinidine is a P-gp substrate
# T1 construct: from tissue; host or cells: brain of living mice (in vivo efflux after icv or ipc injection)
# T1 sequence (P21447 whole entry): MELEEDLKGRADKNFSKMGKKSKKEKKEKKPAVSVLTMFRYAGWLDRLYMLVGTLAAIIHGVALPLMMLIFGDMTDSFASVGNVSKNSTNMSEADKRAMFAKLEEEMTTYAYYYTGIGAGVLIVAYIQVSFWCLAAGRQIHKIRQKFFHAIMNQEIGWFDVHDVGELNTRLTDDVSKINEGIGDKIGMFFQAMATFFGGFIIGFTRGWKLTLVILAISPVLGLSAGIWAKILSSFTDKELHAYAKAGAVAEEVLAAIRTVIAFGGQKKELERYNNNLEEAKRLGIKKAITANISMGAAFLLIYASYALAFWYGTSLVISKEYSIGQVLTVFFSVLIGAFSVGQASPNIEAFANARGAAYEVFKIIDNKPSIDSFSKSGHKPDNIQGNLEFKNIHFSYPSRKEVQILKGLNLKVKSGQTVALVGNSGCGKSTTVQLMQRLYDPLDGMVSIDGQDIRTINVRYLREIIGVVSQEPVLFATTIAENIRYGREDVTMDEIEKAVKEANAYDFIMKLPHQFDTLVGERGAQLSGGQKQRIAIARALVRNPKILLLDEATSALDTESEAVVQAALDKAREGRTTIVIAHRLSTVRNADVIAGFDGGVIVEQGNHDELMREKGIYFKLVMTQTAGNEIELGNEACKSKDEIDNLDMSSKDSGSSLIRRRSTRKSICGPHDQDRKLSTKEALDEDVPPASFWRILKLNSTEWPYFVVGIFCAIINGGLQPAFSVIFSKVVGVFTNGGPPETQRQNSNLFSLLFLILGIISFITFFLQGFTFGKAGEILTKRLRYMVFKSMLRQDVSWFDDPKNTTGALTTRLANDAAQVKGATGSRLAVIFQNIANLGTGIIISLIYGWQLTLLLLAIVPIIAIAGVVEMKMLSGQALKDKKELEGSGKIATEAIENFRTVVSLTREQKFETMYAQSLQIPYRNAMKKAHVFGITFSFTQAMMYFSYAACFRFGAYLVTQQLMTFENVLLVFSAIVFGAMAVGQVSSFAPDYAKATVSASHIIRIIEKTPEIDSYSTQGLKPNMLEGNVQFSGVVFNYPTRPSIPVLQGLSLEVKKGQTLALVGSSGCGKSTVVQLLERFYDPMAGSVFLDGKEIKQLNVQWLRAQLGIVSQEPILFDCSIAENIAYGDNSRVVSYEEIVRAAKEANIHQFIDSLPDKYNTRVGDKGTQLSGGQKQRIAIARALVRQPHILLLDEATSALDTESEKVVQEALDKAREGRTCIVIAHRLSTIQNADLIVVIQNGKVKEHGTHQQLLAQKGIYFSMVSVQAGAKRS
# Protocol: as §2, §3
# [3] = Taylor et al., 2000, cited from earlier work
# [4] = Taylor et al., 2000, cited from earlier work; remark: listed apart in the source
# MRPs [5] = test: Effect of MRP inhibitors on efflux of 14C-AIT-082 from brain after icv administration; format: in vivo, mice; details: icv co-administration with 14C-AIT-082
# Protocol: To examine the role of P-gp and MRP, various substrates/inhibitors were co-administered with ^14C-AIT-082. […] In all experiments the control group of animals was given ^14C-AIT-082 in PBS. Additionally, in experiments in which probenecid or verapamil were used, a second control group was given ^14C-AIT-082 in PBS containing 370 mM NaOH and 370 mM HCl, pH 7.4, or 14C-AIT-082 in PBS with 4.2% ethanol, pH 7.4, respectively.
# All data are presented as mean ±S.E. For comparisons of means from 2 groups an unpaired Student's t-test was used. […]
# MRPs [6] = test: Effect of MRP inhibitors on efflux of 14C-AIT-082 from brain after ipc administration; format: in vivo, mice; details: ipc co-administration with 14C-AIT-082
# Protocol: Mice were anesthetized and then immobilized in a stereotaxic apparatus with a mouse adaptor coupled to a microinjection unit (Kopf, Tujunga, Calif.). […] Back flux of injection fluid was collected and at various times after injection brains were removed. The amount of radioactivity in brain, back flux and injection mixture was measured. The amount of radioactivity in the brain was corrected for the back flux and the log of this corrected dpm was plotted against time. The t½ was calculated as described above.
# As above, all experiments included a control group in which ^14C-AIT-082 was administered in PBS.
# [7] = passively transported compound, t½ significantly higher
compound,measurement,setting,value
"O=C(CCn1cnc2c(=O)[nH]cnc21)Nc1ccc(C(=O)O)cc1 [AIT-082, N-4-carboxyphenyl-3-(6-oxohydropurin-9-yl)propanamide]",effect of excess unlabeled AIT-082 on efflux of 14C-AIT-082 from brain (saturability),[1],inhibited
same,t½ of transport out of brain,"[1]; mice, mean ±S.E.",20 ± 1.0 min
same,effect of excess unlabeled AIT-082 on efflux of 14C-AIT-082 from brain (saturability),[2],inhibited
same,t½ of transport out of brain,"[2]; mice, mean ±S.E.",35.0 ± 1.9 min
same,effect on efflux of 3H-quinidine from brain,P-gp,inhibited
same,effect of excess unlabeled AIT-082 on efflux of 14C-AIT-082 from brain,[3],inhibited
same,t½ of transport out of brain,[3]; after intracerebroventricular administration,approximately 20 minutes
same,mechanism of transport into brain,[4],non-saturable mechanism
same,amount detectable in cortical extracellular fluid,[4]; capillary depletion and microdialysis,low micromolar quantities
"OC[C@H]1O[C@@](CO)(O[C@H]2O[C@H](CO)[C@@H](O)[C@H](O)[C@H]2O)[C@@H](O)[C@@H]1O [^3H-sucrose, sucrose, reference compound]",transport out of brain compared with 14C-AIT-082,[1]; [7],significantly slower
same,transport out of brain compared with 14C-AIT-082,[2]; [7],significantly slower
CCCN(CCC)S(=O)(=O)c1ccc(C(=O)O)cc1 [probenecid],effect on efflux of 14C-AIT-082 from brain,MRPs [5],significantly inhibited
same,effect on efflux of 14C-AIT-082 from brain,MRPs [6],significantly inhibited
